Data from BindingDB's records for doi:10.1016/S0960-894X(97)10080-4 (1997).

Experiment: Tested for functional activity against neuronal nicotinic acetylcholine receptor(nAChR) expressed in K177 cells using isotopic rubidium efflux assay.

c1cnc2cc([C@@H]3CCCN3)oc2c1 [(S)-2-Pyrrolidin-2-yl-furo[3,2-b]pyridine]
EC50: > 1000 µM
